Results from US20070093483A1, “Use of derivatives of 2, 4-dihydro-[1,2,4] triazole-3-thione as inhibitors of the enzyme myeloperoxidase (mpo)” (ASTRAZENECA AB, priority 2003, published 2007).

Each compound was assayed against T1, human MPO (Homo sapiens, UniProt P05164) (assay: MPO inhibition screen (TMB oxidation, absorbance), with or without added tyrosine). Conditions: in the presence of tyrosine (final 8 uM); human MPO 2.5 nM; H2O2 100 μM; pH 6.5.
T1 sequence (P05164 49-745): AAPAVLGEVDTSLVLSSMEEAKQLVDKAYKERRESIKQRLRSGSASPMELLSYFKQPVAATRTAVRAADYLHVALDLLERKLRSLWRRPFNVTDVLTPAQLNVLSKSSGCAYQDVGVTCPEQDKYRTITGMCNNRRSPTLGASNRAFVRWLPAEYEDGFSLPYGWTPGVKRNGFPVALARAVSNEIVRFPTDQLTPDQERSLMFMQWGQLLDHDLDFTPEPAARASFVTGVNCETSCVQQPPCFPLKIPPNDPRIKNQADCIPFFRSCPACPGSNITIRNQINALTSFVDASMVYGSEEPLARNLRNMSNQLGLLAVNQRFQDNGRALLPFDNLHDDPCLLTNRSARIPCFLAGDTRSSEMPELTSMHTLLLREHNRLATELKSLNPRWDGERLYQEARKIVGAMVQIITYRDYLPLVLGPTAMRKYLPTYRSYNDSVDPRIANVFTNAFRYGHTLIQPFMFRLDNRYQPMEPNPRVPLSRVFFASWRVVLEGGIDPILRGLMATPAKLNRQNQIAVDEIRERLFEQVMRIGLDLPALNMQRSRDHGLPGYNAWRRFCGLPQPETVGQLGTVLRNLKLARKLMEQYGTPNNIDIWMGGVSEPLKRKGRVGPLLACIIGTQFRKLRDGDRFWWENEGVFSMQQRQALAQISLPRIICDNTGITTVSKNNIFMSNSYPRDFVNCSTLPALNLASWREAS
Format: biochemical
Method: Methods for the determination of MPO inhibitory activity are disclosed in co-pending patent application WO 02/090575. The pharmacological activity of compounds according to the invention was tested in the following screen in which the compounds were either tested alone or in the presence of added tyrosine:
Assay buffer: 20 mM sodium/potassium phosphate buffer pH 6.5 containing 10 mM taurine and 100 mM NaCl.
Developing reagent: 2 mM 3,3 ′,5,5′-tetramethylbenzidine (TMB), 200 μM KI, 200 mM acetate buffer pH 5.4 with 20% DNF.
To 10 μl of diluted compounds in assay buffer, 40 μl of human MPO (final concentration 2.5 nM), with or without 20 μM tyrosine (final concentration, if present, 8 uM), was added and the mixture was incubated for 10 minutes at ambient temperature. Then 50 μl of H2O2 (final concentration 100 μM), or assay buffer alone as a control, were added. After incubation for 10 minutes at ambient temperature, the reaction was stopped by adding 10 μl 0.2 mg/ml of catalase (final concentration 18 μg/ml). The reaction mixture was left for an additional 5 minutes before 100 μl of TMB developing reagent was added. The amount of oxidised 3,3′,5,5′-tetramethylbenzidine formed was then measured after about 5 minutes using absorbance spectroscopy at about […]. IC50 values were then determined using standard procedures.

IC50 [µM]	Compound
7.2	Cc1ccccc1-n1c(Cc2c[nH]c3ccccc23)n[nH]c1=S [Example 74, 5-(1H-Indol-3-ylmethyl)-4-(2-methylphenyl)-2,4-dihydro-[1,2,4]triazole-3-thione]
11.3	COc1ccc(OCc2n[nH]c(=S)n2CC2CCCO2)cc1 (stereo not shown) [Example 20, 5-(4-Methoxyphenoxymethyl)-4-(2-tetrahydrofuran-2-yl-methyl)-2,4-dihydro-[1,2,4]triazole-3-thione]
23.6	OCC(c1ccccc1)c1n[nH]c(=S)n1-c1ccccc1 (stereo not shown) [Example 57, 5-(2-Hydroxy-1-phenylethyl)-4-phenyl-2,4-dihydro-[1,2,4]triazole-3-thione]
3.9	Fc1ccc(-n2c(Cc3ccccc3Cl)n[nH]c2=S)cc1 [Example 29, 5-(2-Chlorobenzyl)-4-(4-fluorophenyl)-2,4-dihydro-[1,2,4]triazole-3-thione]
